Results as given in US20260041649A1, “ANTI-INFLAMMATORY AGENT” (WATANABE OYSTER LABORATORY, CO., LTD., priority 2023, published 2026).

Key:
[1] = test system: RAW264.7 cells cultured with LPS; experiment: Cell proliferation of RAW264.7 cells cultured with LPS; type: cell-based, mouse; conditions: DHMBA 1 or 10 μM, LPS 100 ng/ml, 3 days
Method: In FIG. 5A, to examine the effect on cell proliferation, RAW264.7 cells (1×10^5/ml/well) were cultured for 3 days in a DMEM culture medium containing 10% FBS, 1% P/S, and 1% fungizone in the control group (1% ethanol as final concentration) with or without LPS (1, 10, 50, 100, 500 ng/ml). In FIG. 5B, cells (1×10^5/ml per well) were cultured for 3 days in a DMEM culture medium containing 10% FBS, 1% P/S, and 1% fungizone in the DHMBA-treated group (1 or 10 μM) with or without LPS (100 ng/ml). In FIG. 5C, to examine the effect on cell death, cells that had reached subconfluence after 3 days of culture were cultured for another 48 hours in the control group (1% ethanol) with or without LPS (1, 10, 50, 100, or 500 ng/ml). In FIG. 5D, cells that had reached subconfluence were cultured for another 48 hours in the DHMBA-treated group (1 or 10 μM) with or without LPS (100 ng/ml). After the culture, the number of cells attached to the dish was counted. Data are presented as the mean±SD from a total of 8 wells in 2 plates using different cell preparations. *: Significant difference (p<0.01) versus the controls without LPS (gray bars) (FIG. 5A and FIG. 5C) or without DHMBA (gray bars) (FIG. 5B and FIG. 5D). […]
The number of viable cells was counted under a microscope (Olympus MTV-3) using a hemocytometer (Sigma-Aldrich) and a cell counter (H-102P, Line Seiki Co., Ltd., Tokyo, Japan).

[2] = test system: mouse macrophage RAW264.7 cells; experiment: Cell number after 5 hours incubation with or without LPS; type: cell-based; conditions: DHMBA 0.1-1000 μM
Method: RAW264.7 cells (1×10^5/ml/well) were cultured in a DMEM culture medium containing 10% FBS, 1% P/S, and 1% fungizone. Cells were treated with a vehicle (1% ethanol; DHMBA 0 μM as final concentration) or DHMBA (0.1, 1, 10, 100, or 1000 μM) and incubated for 5 hours (FIG. 6A).
Cells (1×10^5/ml per well) were cultured for 3 days in a DMEM culture medium containing 10% FBS, 1% P/S, and 1% fungizone in the presence of LPS (100 ng/ml in all cultures). Cells were treated with a vehicle (1% ethanol; DHMBA 0 μM as final concentration) or DHMBA (0.1, 1, 10, 100, or 1000 μM) and incubated for 5 hours (FIG. 6B).
After the culture, the number of cells attached to the dish was counted. Data are presented as the mean±SD from a total of 8 wells of two plates using different cell preparations. […] No significant changes were observed by […] LPS treatment compared to the controls (gray bars). Statistical analysis was performed using 1-way ANOVA with Tukey-Kramer post-test.
RAW264.7 cells (1×10^5/ml per well) were cultured in a DMEM culture medium containing 10% FBS and 1% P/S using a 24-well plate for 3 days until they reached subconfluence. […] The concentrations of TNF-α, IL-6, IL-⊕, and PGE2 in the culture medium were measured using ELISA kits. […] The amount of each cytokine produced was expressed as pictograms (pg) secreted into the culture medium (ml).

[3] = test system: mouse macrophage RAW264.7 cells; experiment: Measurement of cytokine production (ELISA); type: cell-based; conditions: 5 hours
Method: RAW264.7 cells (1×10^5/ml per well in a 24-well plate) were cultured for 3 days in a DMEM culture medium without DHMBA until they reached subconfluence. After that, the cell culture was continued for another 5 hours in the control group (1% ethanol; DHMBA 0 μM as final concentration) and the DHMBA-treated group (0.1, 1, 10, 100, or 1000 μM) with or without LPS (100 ng/ml) in the cell culture medium. After the culture, the culture medium was collected, and the cytokine concentrations of TNF-α (FIG. 7A), IL-6 (FIG. 7B), […] (FIG. 7C), and PGE2 (FIG. 7D) in the culture medium were measured using an ELISA Kit. Data are presented as the mean±SD from a total of 8 wells in two plates using different cell preparations. *: Significant difference (P<0.001) versus the controls without DHMBA and LPS (white bars). #: Significant difference (P<0.001) versus the controls with LPS but without DHMBA. Statistical analysis was performed using 1-way ANOVA with Tukey-Kramer post-test.
RAW264.7 cells (1×10^5/ml per well) were cultured in a DMEM culture medium containing 10% FBS and 1% P/S using a 24-well plate for 3 days until they reached subconfluence. The cells were then cultured for another 5 hours in the control group (1% ethanol; DHMBA 0 μM as final concentration) and in the DHMBA-treated group (0.1, 1, 10, 100, or 1000 μM) with or without LPS (100 ng/ml). After the culture, the culture media were collected to measure cytokines. Then, the cells were detached from each culture dish to measure the cell number by the method described in “Cell count”. The concentrations of TNF-α, IL-6, IL-⊕, and PGE2 in the culture medium were measured using ELISA kits. For the measurement, kits for TNF-α (cat. no. BM), KHC301) and IL-16 (cat. no. BMS6002) were obtained from ThermoFisher Scientific (Waltham, MA, USA), and kits for IL-6 (cat. no. 583371) and PGE2 (cat. no. 514010) were purchased from Cayman Chemical (Ann Arbor, MI, USA). The amount of each cytokine produced was expressed as pictograms (pg) secreted into the culture medium (ml).

[4] = LPS 100 ng/ml, DHMBA 1, 10, 100 or 1000 μM

COc1c(O)cc(CO)cc1O [DHMBA, 3,5-dihydroxy-4-methoxybenzyl alcohol]
suppressed: proliferation of RAW264.7 cells in the presence of LPS [1] | LPS-increased production of IL-1β [3, 4] | LPS-increased production of IL-6 [3, 4] | LPS-increased production of PGE2 [3, 4] | LPS-increased production of TNF-α [3, 4] | production of IL-6 ([3]; absence of LPS, DHMBA 100 or 1000 μM)
remained unchanged: number of RAW264.7 cells ([2]; LPS 100 ng/ml) | number of RAW264.7 cells ([2]; absence of LPS)
